Results: patent US11802111B2, “Cyclobutyl amide monoacylglycerol lipase modulators” (Janssen Pharmaceutica NV, priority 2020, dated 2023)

What follows are compounds tested against human MGL from HeLa cells (Homo sapiens (Human), UniProt Q99685) (assay: MGL in vitro activity assay ([glycerol-1,3-3H]-oleoyl glycerol hydrolysis, activated carbon filtration)). Conditions: 300 nM [Glycerol-1,3-3H]-oleoyl glycerol, one hour.
Assay type: biochemical
Description: The assay used to measure the in vitro activity of MGL is adapted from the assay used for another serine hydrolase (FAAH) described in Wilson et al., 2003 (A high-throughput-compatible assay for determining the activity of fatty acid amide hydrolase. Wilson S J, Lovenberg T W, Barbier A J. Anal Biochem. 2003 Jul. 15; 318(2):270-5). The assay consists of combining endogenously expressed MGL from HeLa cells with test compounds, adding [glycerol-1,3-^3H]-oleyl glycerol, incubating for one hour, and then measuring the amount of cleaved [1,3-^3H]-glycerol that passes through an activated carbon filter. The amount of cleaved, tritiated glycerol passing through the carbon filter is proportional to the activity of the MGL enzyme in a particular well/test condition.
Standard conditions for this assay combine 300 nM [Glycerol-1,3-^3H]-oleoyl glycerol with human MGL from HeLa cells and test compounds for one hour, after which the reaction is filtered through activated carbon and tritium is measured in the flow through. The test compound concentration in screening mode is 10 μM, while the highest compound concentration in IC50 assays is determined empirically. MGL is the predominant hydrolase in HeLa cells/cell homogenates.

Sequence of human MGL from HeLa cells (Q99685 whole entry): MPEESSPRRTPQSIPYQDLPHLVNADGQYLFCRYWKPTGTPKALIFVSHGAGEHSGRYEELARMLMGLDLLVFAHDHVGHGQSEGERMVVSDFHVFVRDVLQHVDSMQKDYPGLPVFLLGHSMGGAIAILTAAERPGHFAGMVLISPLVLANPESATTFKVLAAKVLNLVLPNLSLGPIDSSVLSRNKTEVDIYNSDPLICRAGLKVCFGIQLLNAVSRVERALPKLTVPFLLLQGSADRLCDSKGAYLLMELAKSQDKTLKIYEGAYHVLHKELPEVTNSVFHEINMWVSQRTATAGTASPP

Question: Which IC50 does the source give for `C[C@]1(O)C[C@@H](C(=O)N2CC3(CC[C@@H](c4ccc(C(F)(F)F)cc4)C3)C2)C1` (stereo in doubt) [Example 56, ((1s,3*S)-3-Hydroxy-3-methylcyclobutyl)((*R)-6-(4-(trifluoromethyl)phenyl)-2-azaspiro[3.4]octan-2-yl)methanone] here?
Answer: 22 nM

Question: Which IC50 does the source give for `Cc1ccc(OC(F)F)cc1C1CCC2(C1)CN(C(=O)[C@H]1C[C@@](C)(O)C1)C2` (mixture of isomers) [Example 85, (rac)-(6-(5-(Difluoromethoxy)-2-methylphenyl)-2-azaspiro[3.4]octan-2-yl)((1s,3s)-3-hydroxy-3-methylcyclobutyl)methanone] here?
Answer: 42 nM

Question: For `C[C@]1(O)C[C@@H](C(=O)N2CC3(CC[C@H](Cc4cccc(C(F)(F)F)c4)C3)C2)C1` (stereo in doubt) [Example 177, ((1s,3*S)-3-Hydroxy-3-methylcyclobutyl)((*R)-6-(3-(trifluoromethyl)benzyl)-2-azaspiro[3.4]octan-2-yl)methanone], which IC50 is on record?
Answer: 14 nM

Question: `COc1nc(OC2CCC3(CC2)CN(C(=O)[C@H]2C[C@@](C)(O)C2)C3)ccc1C` [Example 456, ((1s,3s)-3-Hydroxy-3-methylcyclobutyl)(7-((6-methoxy-5-methylpyridin-2-yl)oxy)-2-azaspiro[3.5]nonan-2-yl)methanone] was tested. Which IC50 did it give?
Answer: 19 nM

Question: With `C[C@]1(O)C[C@@H](C(=O)N2CC3(CCC(Oc4ccc(C5CC5)cn4)CC3)C2)C1` [Example 426, (7-((5-Cyclopropylpyridin-2-yl)oxy)-2-azaspiro[3.5]nonan-2-yl)((1s,3s)-3-hydroxy-3-methylcyclobutyl)methanone] as the compound, how does the IC50 read?
Answer: 20 nM

Question: How did the IC50 turn out when `COc1cc(C(F)F)ccc1CC1CC2(C1)CN(C(=O)[C@H]1C[C@@](C)(O)C1)C2` [Example 275, (6-(4-(Difluoromethyl)-2-methoxybenzyl)-2-azaspiro[3.3]heptan-2-yl)((1s,3s)-3-hydroxy-3-methylcyclobutyl)methanone] was run?
Answer: 0.44 nM

Question: Which IC50 does the source give for `Cn1ncc2ccc(CC3CCC4(CC3)CN(C(=O)[C@H]3C[C@@](C)(O)C3)C4)nc21` [Example 403, ((1s,3s)-3-Hydroxy-3-methylcyclobutyl)(7-((1-methyl-1H-pyrazolo[3,4-b]pyridin-6-yl)methyl)-2-azaspiro[3.5]nonan-2-yl)methanone] here?
Answer: 449 nM

Question: How did the IC50 turn out when `COc1cc(C2CCC3(C2)CN(C(=O)[C@H]2C[C@@](C)(O)C2)C3)ccc1Cl` (mixture of isomers) [Example 87, (rac)-(6-(4-Chloro-3-methoxyphenyl)-2-azaspiro[3.4]octan-2-yl)((1s,3s)-3-hydroxy-3-methylcyclobutyl)methanone] was run?
Answer: 105 nM

Question: `Cc1ccc(C(F)(F)F)c(CC2CC3(C2)CN(C(=O)[C@H]2C[C@@](C)(O)C2)C3)c1` [Example 211, ((1s,3s)-3-Hydroxy-3-methylcyclobutyl)(6-(5-methyl-2-(trifluoromethyl)benzyl)-2-azaspiro[3.3]heptan-2-yl)methanone] was tested. Which IC50 did it give?
Answer: 4.1 nM

Question: How did the IC50 turn out when `Cn1ncc(C2CCC3(C2)CN(C(=O)[C@H]2C[C@@](C)(O)C2)C3)c1C(F)(F)F` (mixture of isomers) [Example 109, (rac)-((1s,3s)-3-Hydroxy-3-methylcyclobutyl)(6-(1-methyl-5-(trifluoromethyl)-1H-pyrazol-4-yl)-2-azaspiro[3.4]octan-2-yl)methanone] was run?
Answer: 899 nM

Question: How did the IC50 turn out when `Cc1cc(C(F)(F)F)cc(OC2CCC3(CC2)CN(C(=O)[C@H]2C[C@@](C)(O)C2)C3)n1` [Example 447, ((1s,3s)-3-Hydroxy-3-methylcyclobutyl)(7-((6-methyl-4-(trifluoromethyl)pyridin-2-yl)oxy)-2-azaspiro[3.5]nonan-2-yl)methanone] was run?
Answer: 110 nM

Question: For `Cn1cc(C(F)(F)F)c2ccc(C3CCC4(CC3)CN(C(=O)[C@H]3C[C@@](C)(O)C3)C4)nc21` [Example 386, ((1s,3s)-3-Hydroxy-3-methylcyclobutyl)(7-(1-methyl-3-(trifluoromethyl)-1H-pyrrolo[2,3-b]pyridin-6-yl)-2-azaspiro[3.5]nonan-2-yl)methanone], which IC50 is on record?
Answer: 19 nM

Question: Which IC50 does the source give for `Cc1cc(OC2CCC3(CC2)CN(C(=O)[C@H]2C[C@@](C)(O)C2)C3)nc(C)c1C(F)(F)F` [Example 465, (7-((4,6-Dimethyl-5-(trifluoromethyl)pyridin-2-yl)oxy)-2-azaspiro[3.5]nonan-2-yl)((1s,3s)-3-hydroxy-3-methylcyclobutyl)methanone] here?
Answer: 2.7 nM

Question: `C[C@]1(O)C[C@@H](C(=O)N2CC3(CCC(c4cccc(OC(F)(F)F)c4)C3)C2)C1` (mixture of isomers) [Example 40, (rac)-((1s,3s)-3-Hydroxy-3-methylcyclobutyl)(6-(3-(trifluoromethoxy)phenyl)-2-azaspiro[3.4]octan-2-yl)methanone] was tested. Which IC50 did it give?
Answer: 23 nM

Question: How did the IC50 turn out when `Cc1cc(C(F)(F)F)ccc1OC1CC2(C1)CN(C(=O)[C@H]1C[C@@](C)(O)C1)C2` [Example 249, ((1s,3s)-3-Hydroxy-3-methylcyclobutyl)(6-(2-methyl-4-(trifluoromethyl)phenoxy)-2-azaspiro[3.3]heptan-2-yl)methanone] was run?
Answer: 20 nM

Question: Which IC50 does the source give for `Cn1cc(F)c2ccc(CC3CC4(C3)CN(C(=O)[C@H]3C[C@@](C)(O)C3)C4)nc21` [Example 293, (6-((3-Fluoro-1-methyl-1H-pyrrolo[2,3-b]pyridin-6-yl)methyl)-2-azaspiro[3.3]heptan-2-yl)((1s,3s)-3-hydroxy-3-methylcyclobutyl)methanone] here?
Answer: 10 nM

Question: Which IC50 does the source give for `Cc1cc(OC2CCC3(C2)CN(C(=O)[C@H]2C[C@@](C)(O)C2)C3)ccc1C(F)(F)F` (mixture of isomers) [Example 254, (rac)-((1s,3s)-3-Hydroxy-3-methylcyclobutyl)(6-(3-methyl-4-(trifluoromethyl)phenoxy)-2-azaspiro[3.4]octan-2-yl)methanone] here?
Answer: 21 nM

Question: How did the IC50 turn out when `COc1cccc(C2CCC3(CC2)CN(C(=O)[C@H]2C[C@@](C)(O)C2)C3)n1` [Example 117, ((1s,3s)-3-Hydroxy-3-methylcyclobutyl)(7-(6-methoxypyridin-2-yl)-2-azaspiro[3.5]nonan-2-yl)methanone] was run?
Answer: 420 nM

Question: Which IC50 does the source give for `Cc1ccc(C(F)(F)F)nc1OC1CCC2(CC1)CN(C(=O)[C@H]1C[C@@](C)(O)C1)C2` [Example 449, ((1s,3s)-3-Hydroxy-3-methylcyclobutyl)(7-((3-methyl-6-(trifluoromethyl)pyridin-2-yl)oxy)-2-azaspiro[3.5]nonan-2-yl)methanone] here?
Answer: 8.5 nM

Question: How did the IC50 turn out when `C[C@]1(O)C[C@@H](C(=O)N2CC3(CC(Cn4c(C(F)(F)F)cc5cccnc54)C3)C2)C1` [Example 294, ((1s,3s)-3-Hydroxy-3-methylcyclobutyl)(6-((2-(trifluoromethyl)-1H-pyrrolo[2,3-b]pyridin-1-yl)methyl)-2-azaspiro[3.3]heptan-2-yl)methanone] was run?
Answer: 10 nM

Question: How did the IC50 turn out when `CC(C)Oc1nc(CC2CC3(C2)CN(C(=O)[C@H]2C[C@@](C)(O)C2)C3)ccc1C(F)(F)F` [Example 282, ((1s,3s)-3-Hydroxy-3-methylcyclobutyl)(6-((6-isopropoxy-5-(trifluoromethyl)pyridin-2-yl)methyl)-2-azaspiro[3.3]heptan-2-yl)methanone] was run?
Answer: 1 nM

Question: How did the IC50 turn out when `CCOc1cccc(C2CCC3(CC2)CN(C(=O)[C@H]2C[C@@](C)(O)C2)C3)c1C` [Example 361, (7-(3-Ethoxy-2-methylphenyl)-2-azaspiro[3.5]nonan-2-yl)((1s,3s)-3-hydroxy-3-methylcyclobutyl)methanone] was run?
Answer: 1.8 nM
